Results: patent US4871727A, “Anti-inflammatory and antidegenerative compounds isolated from L-681,512” (Merck & Co, Inc., priority 1987, dated 1989)

biological target: T1, Human Polymorphonuclear Leukocyte Elastase (Homo sapiens, UniProt P08246); test: Inhibition of human polymorphonuclear leukocyte (PMN) elastase via hydrolysis of N-t-Boc-alanyl-alanyl-prolyl-alanine-p-nitroanilide (two point or "zero time" assay); format: biochemical; settings: 50% inhibition of the enzyme activity 2 minutes after zero time; crude human PMN extract; 0.2 mM Boc-AAPAN, pH 7.5, 410 nm; read-out: ED50 (the source's name) (converted)
T1 construct: Crude extract of human polymorphonuclear leukocytes (PMN) containing elastase activity; endogenous in cells; host or cells: human polymorphonuclear leukocytes (crude extract)
T1 sequence (P08246 30-247 limits assumed): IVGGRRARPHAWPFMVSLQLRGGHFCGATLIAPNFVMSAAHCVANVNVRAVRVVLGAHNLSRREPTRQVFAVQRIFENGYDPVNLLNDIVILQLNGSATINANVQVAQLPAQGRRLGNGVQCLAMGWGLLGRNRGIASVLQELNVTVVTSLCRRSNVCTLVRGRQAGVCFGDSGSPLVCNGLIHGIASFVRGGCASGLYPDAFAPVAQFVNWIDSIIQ
Excerpt: It is generally understood that the enzyme of interest is that enzyme against which the inhibitory activity of the fermentation broth samples are being determined and quantified (e.g., PMN elastase). Consequently, all of the remaining wells are charged with the same enzyme of interest. However, several enzymes of interest can be charged to a plurality of wells, and the wells grouped together to facilitate separate identification and assay. When this is done, separate control wells must then also be prepared to correspond to the different enzymes of interest.
The chromogenic medium is charged to all the wells at substantially the same time and the time of this addition is noted. This is the "zero time" mentioned earlier as it is from that moment that a predetermined time lapse is measured during which sufficient reaction between the fermentation broth samples and the enzyme of interest occurs to enable not only accurate screening of enzyme inhibitory activity, but also the degree of that activity. Naturally, the predetermined time lapse will differ with different enzymes and can be from about 1 minute to about 20 minutes, typically from about 2 minutes to about 10 minutes.
The chromogenic media typically used are aromatic nitro- containing compounds. Illustrative of such compounds are Boc-ala-ala-pro-ala-p-nitroanilide, -α-benzoyl-DL-arginine-p-nitroanilide, N-α-benzoyl-L-tyrosine-p-nitroanilide, and the like.
Using the two point or "zero time" assay method described above, the following protocol was employed:
Enzyme Assays for the Inhibition of Human Polymorphonuclear Leukocyte Elastase Via Hydrolysis of N-t-Boc-alanyl-alanyl-prolylalanine-p-nitroanilide
0.05M TES (N-tris[hydroxymethyl]methyl-2-amino-ethanesulfonic acid) Buffer, pH 7.5.
0.2 mM N-t-Boc-alanyl-alanyl-prolyl-alanine-p-nitroanilide (Boc-AAPAN).
To prepare substrate, the solid (m.w. 550) was first dissolved in 10.1 ml DMSO. Buffer at pH 7.5 was then added to a final volume of 100 ml.
Crude extract of human polymorphonuclear leukocytes (PMN) containing elastase activity.
Inhibitors (cephalosporin sulfone esters) to be tested dissolved in DMSO just before use.
To 1.0 ml of 0.2 mM Boc-AAPAN in a cuvette, 0.01-0.1 ml of DMSO with or without inhibitor was added. After mixing, a measurement was taken at 410 nm to detect any spontaneous hydrolysis due to presence of test compound. 0.05 Milliliters of PMN extract was then added and the ΔOD/min at 410 nm was measured and recorded. A Beckman model 35 spectrophotometer was used.
Results were reported as ED50, i.e., effective dosage in micrograms per milliliter (μg/ml) for 50% inhibition of the enzyme activity 2 minutes after zero time.
The elastase activity in the crude PMN extract may vary from one preparation to another. A control of each new batch is run, and the volume added in the assay procedure is adjusted according to activity.

Q: For `C=C(CCC(C)[C@H]1CC=C2C3=C([C@@H](O)[C@H](OC(C)=O)C21C)C1(C)C[C@@H](O)[C@H](OS(=O)(=O)O)C(C)(C)[C@@H]1CC3)C(C)C` (some centres unmarked) [Compound 1], which IC50 is on record?
A: Its IC50 is 2.35 µM.

Q: With `C=C(CCC(C)[C@H]1CCC2C3=C([C@@H](O)[C@H](OC(C)=O)C21C)C1(C)C[C@@H](O)[C@H](OS(=O)(=O)O)C(C)(C)[C@@H]1CC3)C(C)C` (some centres unmarked) [Compound 2] as the compound, how does the IC50 read?
A: Its IC50 is 2.51 µM.

Q: Which IC50 does the source give for `C=C(CCC(C)[C@H]1CC=C2C3=C([C@@H](O)[C@H](OC(C)=O)C21C)C1(C)C[C@@H](O)[C@H](O)C(C)(C)[C@@H]1CC3)C(C)C` (some centres unmarked) [Compound 5] here?
A: The IC50 was 1.75 µM.

Q: How did the IC50 turn out when `C=C(CCC(C)[C@H]1CC=C2C3=C([C@@H](OC(C)=O)[C@H](OC(C)=O)C21C)C1(C)C[C@@H](OC(C)=O)[C@H](OS(=O)(=O)O)C(C)(C)[C@@H]1CC3)C(C)C` (some centres unmarked) [Compound 10] was run?
A: The IC50 was 262 µM.

Q: With `C=C(CCC(C)[C@H]1CC=C2C3=C([C@@H](O)[C@H](O)C21C)C1(C)C[C@@H](O)[C@H](OS(=O)(=O)O)C(C)(C)[C@@H]1CC3)C(C)C` (some centres unmarked) [Compound 11] as the compound, how does the IC50 read?
A: The IC50 was 3.44 µM.
